Assays:
[1] = system: RKO (RKOp27) human colon adenocarcinoma cells; assay: Alamar Blue cell viability assay, anti-proliferative/cytotoxic activity on proliferating RKO subclones; format: cell-based; conditions: RKOp27, 72 h, RKO p27 uninduced (proliferating) cells, value = class bound given in Table A, read-out: −logIC50 RKO p27 uninduced (proliferating) (converted)
In short: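 RKOp27 subclones (5000 cells/well) were exposed 24 h after seeding to semi-log compound dilutions in DMEM with 10% FCS, in quadruplicate, for 72 h at 37 °C. Viability was read by Alamar Blue fluorescence (544/590 nm) relative to untreated cells (1% DMSO medium). IC50 came from concentration-effect curves and is reported as −log IC50 [mol/l].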

[2] = system: subclones of RKO colon adenocarcinoma cells (RKOp27 or RKOp21) arrested by Ponasterone A; assay: Alamar Blue cell viability assay, cell cycle specific mode of action: cells arrested by ectopic p27Kip1 induced by Ponasterone A versus proliferating cells; format: cell-based; conditions: Homo sapiens, RKO p27 induced (arrested) cells, 10 μM Ponasterone A, 72 hours, value = class bound given in Table A, read-out: −logIC50 RKO p27 induced (arrested) (converted)
In short: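 RKOp27 or RKOp21 cells, 15000/well in DMEM/10% FCS, either arrested by p27Kip1 induced with 10 μM Ponasterone A or proliferating without inducer; compound added after 24 h, 72 h at 37° C. Alamar Blue fluorescence (544/590 nm), viability as % of untreated cells; −log IC50 reported.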

Structure (SMILES): Cn1cncc1CNC(=O)OC1CCc2c(sc(NC(=O)/C=C/c3cccnc3)c2C#N)C1 (stereo not shown) [Example 38, (3-Methyl-3H-imidazol-4-ylmethyl)-carbamic acid 3-cyano-2-((E)-3-pyridin-3-yl-allanoylamino)-4,5,6,7-tetrahydro-benzo[b]thiophen-6-yl ester]
- IC50 [1]: 501 to 2000 nM
- IC50 [2]: ≥ 100000 nM

Structure (SMILES): CCOc1ccccc1CCC(=O)Nc1sc2c(c1C#N)CCC(OC(=O)NCc1ncc[nH]1)C2 (stereo not shown) [Example 185, (1H-Imidazol-2-ylmethyl)-carbamic acid 3-cyano-2-[3-(2-ethoxy-phenyl)-propanoylamino]-4,5,6,7-tetrahydro-benzo[b]thiophen-6-yl ester]
- IC50 [1]: ≤ 501 nM
- IC50 [2]: ≥ 10000 nM

Structure (SMILES): COc1cccc(C(C)CC(=O)Nc2sc3c(c2C#N)CCC(COC(=O)NCc2cccn2C)C3)c1 (stereo not shown) [Example 338, (1-Methyl-1H-pyrrol-2-ylmethyl)-carbamic acid 3-cyano-2-[3-(3-methoxy-phenyl)-butanoylamino]-4,5,6,7-tetrahydro-benzo[b]thiophen-6-ylmethyl ester]
- IC50 [1]: 501 to 2000 nM
- IC50 [2]: ≥ 50100 nM

Structure (SMILES): CC(CC(=O)Nc1sc2c(c1C#N)CCC(COC(=O)N1CCOCC1)C2)c1cccnc1 (stereo not shown) [Example 367, Morpholine-4-carboxylic acid 3-cyano-2-(3-pyridin-3-yl-butanoylamino)-4,5,6,7-tetrahydro-benzo[b]thiophen-6-ylmethyl ester]
- IC50 [1]: 501 to 2000 nM
- IC50 [2]: ≥ 50100 nM

Structure (SMILES): CC(CC(=O)Nc1sc2c(c1C#N)CCC(COC(=O)NC(C)c1ccnn1C)C2)c1ccccc1 (stereo not shown) [Example 318, [1-(2-Methyl-2H-pyrazol-3-yl)-ethyl]-carbamic acid 3-cyano-2-(3-phenyl-butanoylamino)-4,5,6,7-tetrahydro-benzo[b] thiophen-6-ylmethyl ester]
- IC50 [1]: ≤ 501 nM
- IC50 [2]: ≥ 10000 nM

Structure (SMILES): CCOc1ccccc1CCC(=O)Nc1sc2c(c1C#N)CCC(COC(=O)NCCc1cccnc1)C2 (stereo not shown) [Example 176, (2-Pyridin-3-yl-ethyl)-carbamic acid 3-cyano-2-[3-(2-ethoxy-phenyl)-propanoylamino]-4,5,6,7-tetrahydro-benzo[b]thiophen-6-ylmethyl ester]
- IC50 [1]: ≤ 501 nM
- IC50 [2]: ≥ 100000 nM

Structure (SMILES): COc1cccc(CCC(=O)Nc2sc3c(c2C#N)CCC(COC(=O)NCc2csc(C)n2)C3)c1 (stereo not shown) [Example 247, (2-Methyl-thiazol-4-ylmethyl)-carbamic acid 3-cyano-2-[3-(3-methoxy-phenyl)-propanoylamino]-4,5,6,7-tetrahydro-benzo[b]thiophen-6-ylmethyl ester]
- IC50 [1]: ≤ 501 nM
- IC50 [2]: ≥ 100000 nM

Structure (SMILES): CC(CC(=O)Nc1sc2c(c1C#N)CCC(COC(=O)NCC1CCOCC1)C2)c1ccccc1 (stereo not shown) [Example 308, (Tetrahydro-pyran-4-ylmethyl)-carbamic acid 3-cyano-2-(3-phenyl-butanoylamino)-4,5,6,7-tetrahydro-benzo[b]thiophen-6-ylmethyl ester]
- IC50 [1]: ≤ 501 nM
- IC50 [2]: ≥ 50100 nM

Structure (SMILES): Cc1cc(CNC(=O)OC2CCc3c(sc(NC(=O)/C=C/c4cccnc4)c3C#N)C2)on1 (stereo not shown) [Example 94, (3-Methyl-isoxazol-5-ylmethyl)-carbamic acid 3-cyano-2-((E)-3-pyridin-3-yl-allanoylamino)-4,5,6,7-tetrahydro-benzo[b]thiophen-6-yl ester]
- IC50 [1]: ≤ 501 nM
- IC50 [2]: ≥ 100000 nM

Structure (SMILES): CCOc1ccccc1CCC(=O)Nc1sc2c(c1C#N)CCC(OC(=O)NCCc1cccnc1)C2 (stereo not shown) [Example 166, (2-Pyridin-3-yl-ethyl)-carbamic acid 3-cyano-2-[3-(2-ethoxy-phenyl)-propanoylamino]-4,5,6,7-tetrahydro-benzo[b]thiophen-6-yl ester]
- IC50 [1]: ≤ 501 nM
- IC50 [2]: ≥ 100000 nM

Structure (SMILES): COC(=O)OC1CCc2c(sc(NC(=O)/C=C/c3cccnc3)c2C#N)C1 (stereo not shown) [Example 55, Carbonic acid 3-cyano-2-((E)-3-pyridin-3-yl-allanoylamino)-4,5,6,7-tetrahydro-benzo[b]thiophen-6-yl ester methyl ester]
- IC50 [1]: ≤ 501 nM
- IC50 [2]: ≥ 100000 nM

Structure (SMILES): CC(CC(=O)Nc1sc2c(c1C#N)CCC(COC(=O)NC(C)c1cccnc1)C2)c1cccnc1 (stereo not shown) [Example 284, (1-Pyridin-3-yl-ethyl)-carbamic acid 3-cyano-2-(3-pyridin-3-yl-butanoyl-amino)-4,5,6,7-tetrahydro-benzo[b]thiophen-6-ylmethyl ester]
- IC50 [1]: 501 to 2000 nM
- IC50 [2]: ≥ 50100 nM

Structure (SMILES): CCNC(=O)OCC1CCc2c(sc(NC(=O)CCc3cccnc3)c2C#N)C1 (stereo not shown) [Example 156, Ethyl-carbamic acid 3-cyano-2-(3-pyridin-3-yl-propanoylamino)-4,5,6,7-tetrahydro-benzo[b]thiophen-6-ylmethyl ester]
- IC50 [1]: 501 to 2000 nM
- IC50 [2]: ≥ 100000 nM

Structure (SMILES): COc1cccc(CCC(=O)Nc2sc3c(c2C#N)CCC(COC(=O)NCc2cc(C)on2)C3)c1 (stereo not shown) [Example 240, (5-Methyl-isoxazol-3-ylmethyl)-carbamic acid 3-cyano-2-[3-(3-methoxy-phenyl)-propanoylamino]-4,5,6,7-tetrahydro-benzo[b]thiophen-6-ylmethyl ester]
- IC50 [1]: ≤ 501 nM
- IC50 [2]: ≥ 100000 nM

Structure (SMILES): CC(CC(=O)Nc1sc2c(c1C#N)CCC(OC(=O)OCc1cncs1)C2)c1cccnc1 (stereo not shown) [Example 356, Carbonic acid 3-cyano-2-(3-pyridin-3-yl-butanoylamino)-4,5,6,7-tetrahydro-benzo[b] thiophen-6-yl ester thiazol-5-ylmethyl ester]
- IC50 [1]: 501 to 2000 nM
- IC50 [2]: ≥ 100000 nM

Structure (SMILES): Cc1n[nH]cc1CNC(=O)OC1CCc2c(sc(NC(=O)CC(C)c3ccccc3)c2C#N)C1 (stereo not shown) [Example 298, (3-Methyl-1H-pyrazol-4-ylmethyl)-carbamic acid 3-cyano-2-(3-phenyl-butanoylamino)-4,5,6,7-tetrahydro-benzo[b]thiophen-6-yl ester]
- IC50 [1]: ≤ 501 nM
- IC50 [2]: ≥ 10000 nM

Structure (SMILES): CC(C)CN(C)C(=O)OCC1CCc2c(sc(NC(=O)/C=C/c3cccnc3)c2C#N)C1 (stereo not shown) [Example 137, Isobutyl-methyl-carbamic acid 3-cyano-2-((E)-3-pyridin-3-yl-allanoylamino)-4,5,6,7-tetrahydro-benzo[b]thiophen-6-ylmethyl ester]
- IC50 [1]: ≤ 501 nM
- IC50 [2]: ≥ 100000 nM

Structure (SMILES): COc1cccc(CCC(=O)Nc2sc3c(c2C#N)CCC(OC(=O)OCc2cncs2)C3)c1 (stereo not shown) [Example 266, Carbonic acid 3-cyano-2-[3-(3-methoxy-phenyl)-propanoylamino]-4,5,6,7-tetrahydro-benzo[b]thiophen-6-yl ester thiazol-5-ylmethyl ester]
- IC50 [1]: 501 to 2000 nM
- IC50 [2]: ≥ 50100 nM

Structure (SMILES): N#Cc1c(NC(=O)/C=C/c2cccnc2)sc2c1CCC(COC(=O)N1CCC1)C2 (stereo not shown) [Example 79, Azetidine-1-carboxylic acid 3-cyano-2-((E)-3-pyridin-3-yl-allanoylamino)-4,5,6,7-tetrahydro-benzo[b]thiophen-6-ylmethyl ester]
- IC50 [1]: 501 to 2000 nM
- IC50 [2]: ≥ 100000 nM

Structure (SMILES): N#Cc1c(NC(=O)/C=C/c2cccnc2)sc2c1CCC(COC(=O)NCCc1cccnc1)C2 (stereo not shown) [Example 19, (2-Pyridin-3-yl-ethyl)-carbamic acid 3-cyano-2-((E)-3-pyridin-3-yl-allanoylamino)-4,5,6,7-tetrahydro-benzo[b]thiophen-6-ylmethyl ester]
- IC50 [1]: 501 to 2000 nM
- IC50 [2]: ≥ 100000 nM

Structure (SMILES): COc1cccc(C(C)CC(=O)Nc2sc3c(c2C#N)CCC(COC(=O)NCc2cc(C)on2)C3)c1 (stereo not shown) [Example 334, (5-Methyl-isoxazol-3-ylmethyl)-carbamic acid 3-cyano-2-[3-(3-methoxy-phenyl)-butanoylamino]-4,5,6,7-tetrahydro-benzo[b]thiophen-6-ylmethyl ester]
- IC50 [1]: ≤ 501 nM
- IC50 [2]: ≥ 50100 nM

Structure (SMILES): CCOc1ccccc1CCC(=O)Nc1sc2c(c1C#N)CCC(COC(=O)NCc1cc(C)on1)C2 (stereo not shown) [Example 182, (5-Methyl-isoxazol-3-ylmethyl)-carbamic acid 3-cyano-2-[3-(2-ethoxy-phenyl)-propanoylamino]-4,5,6,7-tetrahydro-benzo[b]thiophen-6-ylmethyl ester]
- IC50 [1]: ≤ 501 nM
- IC50 [2]: ≥ 100000 nM

Structure (SMILES): CCOc1ccccc1CCC(=O)Nc1sc2c(c1C#N)CCC(OC(=O)OCc1ccccc1)C2 (stereo not shown) [Example 154, Carbonic acid benzyl ester 3-cyano-2-[3-(2-ethoxy-phenyl)-propanoylamino]-4,5,6,7-tetrahydro-benzo[b]thiophen-6-yl ester]
- IC50 [1]: 501 to 2000 nM
- IC50 [2]: ≥ 100000 nM

Structure (SMILES): CC(CC(=O)Nc1sc2c(c1C#N)CCC(OC(=O)NCc1cccnc1)C2)c1ccccc1 (stereo not shown) [Example 288, Pyridin-3-ylmethyl-carbamicacid 3-cyano-2-(3-phenyl-butanoyl-amino)-4,5,6,7-tetrahydro-benzo[b]thiophen-6-yl ester]
- IC50 [1]: ≤ 501 nM
- IC50 [2]: ≥ 10000 nM

Structure (SMILES): N#Cc1c(NC(=O)/C=C/c2cccnc2)sc2c1CCC(COC(=O)NCc1ccccc1)C2 (stereo not shown) [Example 7, Benzyl-carbamic acid 3-cyano-2-((E)-3-pyridin-3-yl-allanoylamino)-4,5,6,7-tetrahydro-benzo[b]thiophen-6-ylmethyl ester]
- IC50 [1]: ≤ 501 nM
- IC50 [2]: ≥ 100000 nM

Structure (SMILES): CCn1nccc1CNC(=O)OC1CCc2c(sc(NC(=O)CC(C)c3cccc(OC)c3)c2C#N)C1 (stereo not shown) [Example 286, (2-Ethyl-2H-pyrazol-3-ylmethyl)-carbamic acid 3-cyano-2-[3-(3-methoxy-phenyl)-butanoylamino]-4,5,6,7-tetrahydro-benzo[b] thiophen-6-yl ester]
- IC50 [1]: ≤ 501 nM
- IC50 [2]: ≥ 100000 nM

From patent US20110044938A1 (NYCOMED GMBH, priority 2006, published 2011)
